Data reported in patent publication US20080058636A1, “METHODS OF MYOCARDIAL IMAGING” (Epix Pharmaceuticals, Inc., priority 2005, published 2008).

What was measured:
[1] = Biodistribution (heart, blood) after tail vein injection, radiotracer counting; format: in vivo, Sprague-Dawley rats; settings: for Blood (% ID/g) / Heart (% ID/g): rat, 0.5 μmol/kg tail vein
Experimental: Concentration estimates were decay corrected. Studies were performed at least in duplicate.

[2] = tested on: perfused Langendorff rat heart; experiment: Equilibrium binding to perfused Langendorff rat heart
Experimental: After deep anesthesia with pentobarbital (80 mg/kg ip), the chest cavity of a male Sprague Dawley rat (300 g) was opened, retracted and the heart was removed immediately and placed in an ice-cold normal Krebs-Henseleit (K-H) solution (NaCl, 118 mM; KCl, 4.7 mM; CaCl2, 2.5 mM; MgSO4, 1.2 mM; KH2PO4, 1.2 mM; NaHCO3, 25 mM; glucose, 5.5 mM). A K-H buffer filled 20 Gauge needle was inserted into the apex of the heart penetrating into the bottom of the chamber. This was attached to a pressure transducer used to record and monitor heart function. Perfusion pressure (60 mmHg) was monitored using a second transducer. The heart was perfused at a constant flow rate of 10-12 mL/min with 37° C. Krebs-Henseleit buffer saturated with a mixture of 95% O2 and 5% CO2 gas. The heart was paced at 300 beats/min.
Two peptide test articles, a high collagen binding peptide (SEQ ID NO: 144) and a low collagen binding peptide (SEQ ID NO: 173), are compared to GdDTPA. The appropriate test article was added to the K-H buffer solution to a total concentration of either 3 or 30 μM. Also added to the K-H buffer was a radiotracer analog of each peptide or GdDTPA. For the peptides, the radiotracer was an aliquot of the appropriate I-125 labeled peptide derivative (see Example 5 for protocol). For GdDTPA, the tracer added was Tc-99m labeled DTPA. The amount of radioactivity added to the buffer solution was 1-5 μCi.
The heart was perfused for a period of 10 minutes and the perfusion solution was recycled through the heart. The total volume of K-H buffer used was 50-60 mL. After 10 min, the heart was removed from the apparatus and any connective tissue was removed. The heart was opened, fluid in the chambers drained, and the interior blotted dry with filter paper. The heart was then weighed and the radioactivity in the heart measured with a Packard Cobra 5003 Gamma Scintillation counter. An aliquot of the K-H buffer was also weighed and counted. Studies were performed at least in duplicate.
The dual peptide gadolinium tetramer (Compound ID 803) was compared to GdDTPA. Compound ID 803 and GdDTPA were added to the K-H buffer solution to a total concentration of 3 μM. Also added to the K-H buffer was a radiotracer analog of Compound ID 803 or GdDTPA. For Compound ID 803, the radiotracer was an aliquot of the In-111 labeled compound. For GdDTPA, the tracer added was Tc-99m labeled DTPA. The amount of radioactivity added to the buffer solution was 1-5 μCi.

[3] = tested on: perfused Langendorff rat heart; experiment: Washout kinetics from perfused Langendorff rat heart
Experimental: A K-H buffer filled 20 Gauge needle was inserted into the apex of the heart penetrating into the bottom of the chamber. This was attached to a pressure transducer used to record and monitor heart function. Perfusion pressure (60 mmHg) was monitored using a second transducer. The heart was perfused at a constant flow rate of 10-12 mL/min with 37° C. […] The heart was paced at 300 beats/min.
A Langendorff rat heart preparation was perfused with K-H buffer at a rate of 10-12 mL/min. […] After the infusion was finished, the heart was either removed or perfusion was allowed to continue for an additional 10 minutes and then the heart was removed. The perfusion buffer was not recirculated through the heart. After removal of any connective tissue, the heart was opened, fluid in the chambers drained, and the interior blotted dry with filter paper. […] An aliquot of the K-H buffer was also weighed and counted. Concentration estimates were decay corrected. Studies were performed at least in duplicate.

[4] = MR phantom study: T1 of samples at 0.47 Tesla; format: physicochemical; settings: 37° C.
Experimental: Acid soluble human collagen type I extracted from placenta (Sigma, cat# C7774, lot#083K375) was dissolved in 15 mM HCl (3.5 mg/mL) by vortexing and gently shaking for 3-4 hours at 4° C. The acid soluble collagen was dialyzed against PBS (pH 7.4). Protein concentration was determined by the BCA method (Pierce, Cat#23225) using bovine collagen (Vitrogen, cat#FXP-019) as a reference standard. The final collagen concentration for the stock solution was 9 μM.
Rat collagen (acid soluble, type I, rat tail, Upstate USA, Inc. Cat# 08-115) was dialyzed against 10 mM Phosphate buffer (NaH2PO4, pH 4.2). The final collagen concentration for the stock solution was approx. 12 μM.
(§1) Samples: • 1. […] Sample prepared as sample 2, but centrifuged to separate insoluble rat collagen gel • 5. Sample prepared as sample 3, but centrifuged to separate insoluble human collagen gel • 6. 27 μM GdDTPA solution in PBS, pH 7.4 • 7. 27 μM GdDTPA in a solution of 5.0 μM rat type I collagen in 10 mM phosphate buffer, pH 5 incubated at 37° C. overnight to form a gel • 8. Sample prepared as in sample 7, but centrifuged to separate insoluble rat collagen gel • 9. Homogeneous gel of 5 μM rat collagen • 10. Homogeneous gel of 7.5 μM human collagen
T1 was determined for samples 1, 2, 3, 6, 7, 9, 10 at 0.47 Tesla using a Bruker NMS120 minispec NMR analyzer operating at 37° C.

rat type I collagen gel = biological target: T1, rat type I collagen gel (Rattus norvegicus, UniProt P02454+P02466); experiment: MR phantom imaging of collagen gel samples at 4.7 T
T1 construct: Rat collagen (acid soluble, type I, rat tail, Upstate USA, Inc, cat# 08-115); purchased Upstate USA, Inc 08-115; host or cells: rat tail (tissue extract)
Experimental: as §1
Samples for imaging were placed in glass tubes that were in turn placed in tubes containing water. Images were acquired at 4.7 T on a Bruker Biospec Imager using a Multi-Slice Multi-Echo Method with variable Relaxation Delay (MSMEVTR) experiment. The spin echo time and the relaxation delay were set to TE=11.2 ms and TR=500 ms, respectively with a flip angle of 30°. Images were acquired of sample 2, sample 4, sample 7, and sample 8. […] Sample 7 and 8 show uniform signal intensity.

[5] = In vivo heart uptake in mice, gadolinium by ICP-MS (tail vein); design: species or system BALB/c mice; settings: mouse, 10 μmol/kg tail vein, 15 minutes post-injection
Experimental: In vivo heart uptake of these two compounds were also compared. […] The animals were sacrificed at 15 minutes post-injection. The organs were immediately removed and rinsed in saline, and then blotted dry. […] Both compounds have similar concentrations in the blood.

infarcted myocardium [6] = experiment: Mouse model of chronic infarction, MR imaging; settings: mice with 7 day, 40 day or 210 day infarcts, 25 μmol/kg i.v.
Experimental: Myocardial infarction was induced in C57BL/6 mice by occlusion of the left anterior descending coronary artery followed by reperfusion. The mice were anesthetized with an intraperitoneal (i.p.) injection of 100 μg pentobarbital sodium per gram body weight and a thorocotamy was performed. The pericardium was removed and the left anterior artery was sutured with a 7.0 silk suture for 60 minutes after which reperfusion was established.
Imaging was performed on separate animals at 7 days, 40 days, or 210 days following infarction. Imaging was performed using on a Varian 4.7 T MRI system Mice were anesthetized with isoflurane (1 vol. % in oxygen). Three pediatric electrocardiogram (ECG) leads were attached to shaved limbs and a rectal temperature probe was placed. […] Temperature was maintained at 37.0±0.5° C. using circulating hot water. Imaging was performed prior to, and serially (every 5 minutes) post intravenous (tail vein) injection of 25 μmol/kg Compound ID NO. […] 6-8 short-axis inversion-recovery slices covering the whole heart from base to apex were acquired with TI=430 ms, TR=1000 ms, RE=4.3 ms and 2 averages.
A heart with a 40 day old infarct was explanted, thoroughly washed in saline solution and fixed in a 3% by volume isotonic solution of formaldehyde for 12 hrs at 3° C. They were washed in PBS and stored in 70% ETOH before embedding in paraffin. […]

infarcted myocardium [7] = experiment: Myocardial infarction MR imaging in mouse (7 days post MI); settings: 25 μmol/kg i.v.
Experimental: A myocardial infarct (MI) was induced in a 28 g C57BL/6 mouse by a 1-hr occlusion of the left anterior descending coronary artery, followed by reperfusion. The mouse was allowed to recover. Seven days post MI, the mouse was anesthetized using a 2% mixture of isoflurane in oxygen and anesthesia was maintained with a 1% mixture. The mouse forelimbs were shaved and fitted with pediatric ECG leads (Blue Sensor, BRS-50-K/UJS, Ambu, Inc., Linthicum, Md.). […] Temperature was maintained at 37° C. using tubing that contained circulating, thermostated water. An i.v. line was implanted in the tail vein and the mouse was placed in the magnet.
Images were acquired on a Varian 4.7-T Inova scanner. A cardiac-gated gradient echo inversion recovery sequence was used whereby the inversion time was set to null the signal from the myocardium. The inversion pulse was a non-selective sinc pulse with a TI of 430 ms and TR of 3 seconds. The excitation is slice selective at 90 degrees and 3 to 4 lines were acquired per TR. Scan time was 4-5 minutes.
Baseline images were acquired. Typically 3-4 short-axis slices were acquired. […] Imaging was repeated out to an hour post injection.

T1 sequence (P02454 152-1207 limits assumed): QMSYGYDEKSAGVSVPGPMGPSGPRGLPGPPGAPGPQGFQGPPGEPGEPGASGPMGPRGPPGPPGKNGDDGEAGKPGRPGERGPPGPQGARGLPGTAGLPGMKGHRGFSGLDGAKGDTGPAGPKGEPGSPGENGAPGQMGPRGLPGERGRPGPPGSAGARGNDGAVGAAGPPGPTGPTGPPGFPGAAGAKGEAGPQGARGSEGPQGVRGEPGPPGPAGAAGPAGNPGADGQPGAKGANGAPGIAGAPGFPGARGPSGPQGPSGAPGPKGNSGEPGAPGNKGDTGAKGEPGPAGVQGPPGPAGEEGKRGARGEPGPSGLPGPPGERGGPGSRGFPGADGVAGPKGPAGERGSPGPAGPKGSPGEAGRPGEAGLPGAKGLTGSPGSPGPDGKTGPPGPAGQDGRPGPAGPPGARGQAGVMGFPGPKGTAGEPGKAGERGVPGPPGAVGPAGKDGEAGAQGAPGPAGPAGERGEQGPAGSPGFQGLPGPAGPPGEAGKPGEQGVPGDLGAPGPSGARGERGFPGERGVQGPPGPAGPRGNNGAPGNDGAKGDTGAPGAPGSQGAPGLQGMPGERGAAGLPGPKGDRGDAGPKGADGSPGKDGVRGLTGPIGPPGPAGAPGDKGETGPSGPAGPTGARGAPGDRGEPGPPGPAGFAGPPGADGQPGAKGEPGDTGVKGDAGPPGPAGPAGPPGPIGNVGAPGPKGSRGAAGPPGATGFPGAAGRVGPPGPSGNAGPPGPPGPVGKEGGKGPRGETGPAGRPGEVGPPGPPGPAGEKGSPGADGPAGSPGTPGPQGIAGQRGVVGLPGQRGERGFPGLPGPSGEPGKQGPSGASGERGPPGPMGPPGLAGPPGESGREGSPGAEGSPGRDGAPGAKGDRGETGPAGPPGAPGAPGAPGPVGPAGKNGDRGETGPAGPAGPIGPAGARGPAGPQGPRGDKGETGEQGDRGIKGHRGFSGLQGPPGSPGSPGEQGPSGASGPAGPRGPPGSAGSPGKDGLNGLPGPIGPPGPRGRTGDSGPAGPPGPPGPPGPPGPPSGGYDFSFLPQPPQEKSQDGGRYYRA
T1 sequence (P02466 86-1125 limits assumed): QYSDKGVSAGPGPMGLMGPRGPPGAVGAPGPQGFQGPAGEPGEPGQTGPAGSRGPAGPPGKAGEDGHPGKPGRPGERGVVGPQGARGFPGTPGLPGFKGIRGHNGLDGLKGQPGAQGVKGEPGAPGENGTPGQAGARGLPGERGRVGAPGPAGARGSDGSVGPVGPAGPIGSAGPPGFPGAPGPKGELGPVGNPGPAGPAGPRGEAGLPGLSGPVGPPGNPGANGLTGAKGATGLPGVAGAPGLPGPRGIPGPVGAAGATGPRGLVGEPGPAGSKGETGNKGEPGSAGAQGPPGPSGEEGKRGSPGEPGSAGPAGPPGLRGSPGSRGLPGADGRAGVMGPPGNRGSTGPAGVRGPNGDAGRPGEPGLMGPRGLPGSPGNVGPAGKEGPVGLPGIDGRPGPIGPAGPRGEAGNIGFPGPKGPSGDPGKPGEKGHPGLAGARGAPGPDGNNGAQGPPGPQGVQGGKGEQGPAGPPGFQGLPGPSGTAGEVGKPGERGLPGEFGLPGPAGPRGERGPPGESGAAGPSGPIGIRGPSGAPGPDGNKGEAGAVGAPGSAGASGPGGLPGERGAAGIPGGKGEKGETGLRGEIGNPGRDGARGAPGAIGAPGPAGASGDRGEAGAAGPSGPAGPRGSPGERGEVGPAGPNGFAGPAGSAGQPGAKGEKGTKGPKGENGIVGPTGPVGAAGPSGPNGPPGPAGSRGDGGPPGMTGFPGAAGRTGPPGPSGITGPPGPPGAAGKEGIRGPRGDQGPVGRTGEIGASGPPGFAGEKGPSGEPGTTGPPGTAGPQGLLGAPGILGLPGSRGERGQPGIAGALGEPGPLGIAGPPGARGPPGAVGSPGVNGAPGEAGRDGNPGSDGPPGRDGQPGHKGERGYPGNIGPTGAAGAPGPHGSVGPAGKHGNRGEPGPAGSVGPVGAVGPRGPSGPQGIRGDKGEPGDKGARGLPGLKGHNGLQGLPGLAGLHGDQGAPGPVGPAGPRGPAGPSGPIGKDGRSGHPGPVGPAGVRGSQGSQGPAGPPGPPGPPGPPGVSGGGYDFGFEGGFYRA

O=C([O-])CN(CCN(CC(=O)[O-])CC(=O)O)CCN(CC(=O)[O-])CC(=O)O.[Gd+3] [GdDTPA, gadolinium diethylenetriaminepentaacetate, reference compound]
Heart:Blood ([1]; 1 min post injection): 0.26
Heart:Blood ([1]; 5 min post injection): 0.26
Blood (% ID/g) ([1]; 1 min post injection): 1.2 ± 0.2 % ID/g
Heart (% ID/g) ([1]; 1 min post injection): 0.32 ± 0.02 % ID/g
Blood (% ID/g) ([1]; 5 min post injection): 0.67 ± 0.12 % ID/g
Heart (% ID/g) ([1]; 5 min post injection): 0.17 ± 0.08 % ID/g
Heart:Buffer ([2]; buffer 3.0 μM): 0.42 ± 0.06
Heart ([2]; buffer 3.0 μM, 10 minutes recirculating perfusion): 1.3 ± 0.3 nmol/g
Heart:Buffer ([2]; buffer 30 μM): 0.46 ± 0.03
Heart ([2]; buffer 30 μM, 10 minutes recirculating perfusion): 14 ± 1.0 nmol/g
Heart ([2]; perfused Langendorff rat heart, 3 μM compound in recirculated K-H buffer, 10 min perfusion, radiotracer counting): 1.4 ± 0.02 nmol/g
Heart:Buffer ([2]; ratio of heart concentration to buffer concentration (3.0 μM), 10 min perfusion): 0.46 ± 0.05
Heart (% ID/g) ([3]; 0 min after infusion): 2.9 ± 1.5 % ID/g
Heart (% ID/g) ([3]; 10 min after infusion, non-recirculated buffer): 0.014 ± 0.002 % ID/g
Heart (% ID/g) ([3]; time after infusion 0 min, 1 mL of 300 μM infused at 1 mL/min, buffer not recirculated): 2.53 ± 0.50 % ID/g
Heart (% ID/g) ([3]; time after infusion 10 min, 1 mL of 300 μM infused at 1 mL/min, buffer not recirculated): 0.056 ± 0.011 % ID/g
T1 ([4]; in 5.0 μM rat collagen gel, 10 μM Compound ID 1022 or 27 μM GdDTPA): 2.410 s
T1 ([4]; in PBS pH 7.4, 10 μM Compound ID 1022 or 27 μM GdDTPA): 2.437 s
MR signal of centrifuged collagen gel pellet versus supernatant (rat type I collagen gel): no increased concentration of GdDTPA in the gel relative to the supernatant

CC(C)C[C@H](NC(=O)[C@@H]1CSSC[C@H](NC(=O)[C@H](Cc2c[nH]cn2)NC(=O)[C@H](Cc2c[nH]c3ccccc23)NC(=O)[C@H](CCCCNC(=O)CNC(=S)Nc2ccc(C[C@@H](CN(CCN(CC(=O)O)CC(=O)O)CC(=O)O)N(CC(=O)O)CC(=O)O)cc2)NC(=O)CNC(=S)Nc2ccc(C[C@@H](CN(CCN(CC(=O)O)CC(=O)O)CC(=O)O)N(CC(=O)O)CC(=O)O)cc2)C(=O)N[C@@H]([C@@H](C)O)C(=O)N[C@@H]([C@@H](C)O)C(=O)N[C@@H](CCCCNC(=S)Nc2ccc(C[C@@H](CN(CCN(CC(=O)O)CC(=O)O)CC(=O)O)N(CC(=O)O)CC(=O)O)cc2)C(=O)N[C@@H](Cc2ccccc2)C(=O)N2CCC[C@H]2C(=O)N[C@@H](Cc2c[nH]cn2)C(=O)N[C@@H](Cc2c[nH]cn2)C(=O)N[C@@H](Cc2ccc(O)cc2)C(=O)N1)C(=O)N[C@@H](Cc1ccc(O)cc1)C(=O)N[C@@H](Cc1ccc(-c2ccccc2)cc1)C(N)=O [Compound ID 800]
Gadolinium concentrations in the blood [5]: 14.3±2.3 nmol Gd/g tissue
Gadolinium concentrations in the heart [5]: 25.5±2.0 nmol Gd/g tissue
MR appearance of infarct zone (infarcted myocardium [6]): infarct zone as hyperintense relative to the normal, viable myocardium
enhancement of infarcted zones (infarcted myocardium [7]): hyperenhancement of infarcted zones
persistence of the enhancement (infarcted myocardium [7]): at least 1 hour
